Experiments:
Y5 receptor subtype = target: T1, Y5 receptor subtype (Homo sapiens, UniProt Q15761); assay: [125I]PYY binding in HEK-293 cells expressing the Y5 receptor subtype; settings: concentrations up to 10; HEK-293 cells expressing Y5
T1 construct: expressed in transfected cells; host or cells: HEK-293 cells
T1 sequence (Q15761 1-445): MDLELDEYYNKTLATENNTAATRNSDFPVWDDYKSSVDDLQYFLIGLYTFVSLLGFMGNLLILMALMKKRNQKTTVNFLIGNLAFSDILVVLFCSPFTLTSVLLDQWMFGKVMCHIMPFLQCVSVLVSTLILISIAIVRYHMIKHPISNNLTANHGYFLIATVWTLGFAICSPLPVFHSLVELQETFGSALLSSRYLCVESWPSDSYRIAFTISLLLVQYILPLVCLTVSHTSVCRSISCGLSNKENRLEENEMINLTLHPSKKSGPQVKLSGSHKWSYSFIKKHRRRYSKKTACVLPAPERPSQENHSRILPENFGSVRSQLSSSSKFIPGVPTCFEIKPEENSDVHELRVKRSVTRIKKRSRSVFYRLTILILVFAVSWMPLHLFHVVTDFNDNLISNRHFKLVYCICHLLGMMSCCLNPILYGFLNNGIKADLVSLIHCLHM
Protocol: The selectivity of the compound of formula (A) was further evaluated in a large variety of ion-channels, transporters and receptor-binding assays including the Y1 receptor subtype. These assays were performed by CEREP (Celles L'Evescault, France; www.cere.com<http//www.cerea.com>). Selectivity vs the Y5 receptor subtype was evaluated as described in Bonaventure, P., D. Nepomuceno, C. Mazur, B. Lord, D. A. Rudolph, J. A. Jablonowski, N. I. Carruthers and T. W. Lovenberg, J Pharmacol Exp Ther. 2004, 308, 1130.

[1] = Pharmacokinetic study in dogs; type: in vivo, male Beagle dog; settings: dog; for Vd: iv, 1 mg/kg
Protocol: Male Beagle Canines 11-15 kilograms in body weight were used. Three animals received a bolus oral dose of the compound via an oral gavage at a dose of 5 mg/kg. Three animals received a bolus intravenous dose of the compound at a dose of 1 mg/kg in the right cephalic vein. Blood sampling of the cephalic or jugular veins followed dosing over a time course. Blood samples consisted of 4-5 mL samples taken from the vein into heparinized blood collection tubes containing Li Heparin. These blood samples were then centrifuged. The plasma was retained and kept frozen in a −40° C. freezer until processed for analysis. The time course for sampling was as follows: 0.25, 0.5, 1, 2, 4, 8, and 24 hours for oral administration and 0.08, 0.25, 0.5, 1, 2, 4, 8, and 24 hours for intravenous administration. These samples were analyzed by LC-MS/MS. The LC-MS/MS data was analyzed using a non-compartmental model with the software package WinNonlin Version 4.0.1 (Pharsight, Palo Alto, Calif.). All figures plasma level versus time figures were created using GraphPad Prism 4 (San Diego, Calif.).
The compound of formula (A) was formulated in 20% hydroxypropyl-β-cyclodextrine. Oral and intravenous pharmacokinetic parameters for the compound of formula (A) were determined in male Beagles with results as shown in FIG. 3 and Table 3 below.

[2] = Pharmacokinetic study in rats; type: in vivo; settings: rat, whole blood; for Vd: iv
Protocol: The pharmacokinetic, blood-brain barrier penetration and ex vivo receptor occupancy studies were performed as described in Bonaventure, P., D. Nepomuceno, C. Mazur, B. Lord, D. A. Rudolph, J. A. Jablonowski, N. I. Carruthers and T. W. Lovenberg, J Pharmacol Exp Ther. 2004, 308, 1130.
The compound of formula (A) was formulated in 20% hydroxypropylbetacyclodextrine. Subcutaneous (SC), oral (PO) or intravenous (IV) dosing was followed by blood sampling via cardiac puncture over a time course. Blood samples consisted of 250 μl samples taken from the heart using a 23-gauge needle into 1.5 ml micro-centrifuge tubes. Brains were removed from the animals and bisected down the midsagittal plane. One hemisphere was frozen on dry ice for ex vivo receptor binding autoradiography and the other was homogenized for LC/MS-MS analysis.
All blood samples were deproteinized by 1:4 dilution of the sample with acetonitrile with vigorous mixing. These samples were incubated for 5 minutes, and then centrifuged at 14,000 rpm in a micro-centrifuge for 4 minutes. The supernatant was recovered into auto-sampler vials and diluted 1:1 with sterile water. Samples were analyzed by LC-MS/MS. A Vydac SP C18 2.1×50 mm analytical column was used for separation.
Oral, subcutaneous and intravenous pharmacokinetic parameters of the compound of formula (A) were determined in rats and are listed in Table 2 below.

[3] = male, beagle, plasma, IV 1 mg/kg
[4] = male, beagle, plasma, PO 5 mg/kg

CCN(CC)C(=O)C(c1ccccc1)N1CCN(c2ccc(NC(=O)c3ccccc3-c3cccnc3)cc2F)CC1 (racemic) [Cmpd (A), N-{4-[4-(Diethylcarbamoyl-phenyl-methyl)-piperazin-1-yl]-3-fluoro-phenyl}-2-pyridin-3-yl-benzamide]
competition for specific [125I]PYY receptor binding sites, Y5 (Y5 receptor subtype): failed to compete for significant amounts | Lambda z ([1]; IV 1 mg/kg): 1.47 h⁻¹ | Lambda z ([1]; PO 5 mg/kg): 0.71 h⁻¹ | Vd ([1]; male, beagle, plasma, IV 1 mg/kg, read-out: VSS): 0.57 L/kg | Vd ([1]; male, beagle, plasma, IV 1 mg/kg, read-out: Vz): 0.64 L/kg | AUC(0-inf) [1, 3]: 1.89 µM·h | AUC(0-t) [1, 3]: 0.89 µM·h | C0 [1, 3]: 6.24 µM | MRT inf [1, 3]: 36.6 min | clearance [1, 3]: 15.8 mL/min/kg | half-life [1, 3]: 28.2 min | AUC(0-inf) [1, 4]: 2.79 µM·h | AUC(0-t) [1, 4]: 2.73 µM·h | Cmax [1, 4]: 1.55 µM | MRT inf [1, 4]: 103 min | Tmax [1, 4]: 49.8 min | half-life [1, 4]: 59.4 min | Vd ([2]; read-out: VSS): 0.73 L/kg | Vd ([2]; read-out: Vz): 1.07 L/kg | AUC(0-inf) ([2]; IV): 0.708 µM·h | C0 ([2]; IV): 5.33 µM | clearance ([2]; IV): 42.3 mL/min/kg | half-life ([2]; IV): 17.4 min | AUC(0-inf) ([2]; PO 10 mg/kg): 0.444 µM·h | Cmax ([2]; PO 10 mg/kg): 0.414 µM | Tmax ([2]; PO 10 mg/kg): 30 min | bioavailability ([2]; PO 10 mg/kg): 6% | half-life ([2]; PO 10 mg/kg): 31.8 min | AUC(0-inf) ([2]; SC 10 mg/kg): 7.91 µM·h | Cmax ([2]; SC 10 mg/kg): 4.35 µM | Tmax ([2]; SC 10 mg/kg): 30 min | bioavailability ([2]; SC 10 mg/kg): > 100% | half-life ([2]; SC 10 mg/kg): 50 min
